Values quoted from earlier work in patent US7939522B1, “Dosage formulations for acetylcholinesterase inhibitors” (priority 1999, dated 2011).

Key:
sleep = settings: humans, systemic administration late in the day or at night (Sitaram, 1979, Reimann, 1994)
[1] = reported (Thomsen, 1990)

Row | Structure (SMILES) | effect on sleep (sleep) | half life [1] [h]
1 | CNC(=O)Oc1ccc2c(c1)[C@]1(C)CCN(C)[C@@H]1N2C [physostigmine] | disturb sleep and produce awakenings | –
2 | COc1ccc2c3c1O[C@H]1C[C@@H](O)C=C[C@@]31CCN(C)C2 [galanthamine] | – | 4.5 to 8
